Test results: PubChem BioAssay (NCI)
Several values for one entry are separate records, joined by “and”; a condition that tells them apart may be missing. Identical values can stand only once.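 Results reflect a 48-hour exposure of cells in 96-well plates to compound at five concentrations. GI50: concentration for 50% inhibition of growth. TGI: total growth inhibition.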

Key:
Test in all cases: growth of human tumour cells (NCI), 48 h
786-0 renal = test system: 786-0 renal
A498 renal = test system: A498 renal
A549 NSCLC = test system: A549 NSCLC
ACHN renal = test system: ACHN renal
BT-549 breast = test system: BT-549 breast
CCRF-CEM leukemia = test system: CCRF-CEM leukemia
COLO 205 colon = test system: COLO 205 colon
DU-145 prostate = test system: DU-145 prostate
EKVX NSCLC = test system: EKVX NSCLC
HCC-2998 colon = test system: HCC-2998 colon
HCT-116 colon = test system: HCT-116 colon
HCT-15 colon = test system: HCT-15 colon
HL-60(TB) leukemia = test system: HL-60(TB) leukemia
HOP-62 NSCLC = test system: HOP-62 NSCLC
HOP-92 NSCLC = test system: HOP-92 NSCLC
HS 578T breast = test system: HS 578T breast
HT29 colon = test system: HT29 colon
IGROV1 ovarian = test system: IGROV1 ovarian
K-562 leukemia = test system: K-562 leukemia
KM12 colon = test system: KM12 colon
LOX IMVI melanoma = test system: LOX IMVI melanoma
M14 melanoma = test system: M14 melanoma
MALME-3M melanoma = test system: MALME-3M melanoma
MCF7 breast = test system: MCF7 breast
MDA-MB-231 breast = test system: MDA-MB-231 breast
MDA-MB-435 = test system: MDA-MB-435
NCI-H226 lung = test system: NCI-H226 lung
NCI-H23 lung = test system: NCI-H23 lung
NCI-H460 lung = test system: NCI-H460 lung
NCI-H522 lung = test system: NCI-H522 lung
NCI/ADR-RES ovarian = test system: NCI/ADR-RES ovarian
OVCAR-3 ovarian = test system: OVCAR-3 ovarian
OVCAR-4 ovarian = test system: OVCAR-4 ovarian
OVCAR-5 ovarian = test system: OVCAR-5 ovarian
OVCAR-8 ovarian = test system: OVCAR-8 ovarian
PC-3 prostate = test system: PC-3 prostate
RPMI-8226 leukemia = test system: RPMI-8226 leukemia
RXF 393 renal = test system: RXF 393 renal
SF-268 CNS = test system: SF-268 CNS
SF-295 CNS = test system: SF-295 CNS
SF-539 CNS = test system: SF-539 CNS
SK-MEL-28 melanoma = test system: SK-MEL-28 melanoma
SK-MEL-5 melanoma = test system: SK-MEL-5 melanoma
SK-OV-3 ovarian = test system: SK-OV-3 ovarian
SN12C renal = test system: SN12C renal
SNB-19 CNS = test system: SNB-19 CNS
SNB-75 CNS = test system: SNB-75 CNS
SR leukemia = test system: SR leukemia
SW-620 colon = test system: SW-620 colon
T-47D breast = test system: T-47D breast
TK-10 renal = test system: TK-10 renal
U251 CNS = test system: U251 CNS
UACC-257 melanoma = test system: UACC-257 melanoma
UACC-62 melanoma = test system: UACC-62 melanoma
UO-31 renal = test system: UO-31 renal

`CCOC(=O)C(Cc1c[nH]c2cc(N(CCO)CCO)ccc12)(NC(C)=O)C(=O)OCC` gave a GI50 (786-0 renal) of 919 µM, a TGI (786-0 renal) greater than 1000 µM and a GI50 (A498 renal) of 570 µM. It also gave a TGI (A498 renal) greater than 1000 µM, a GI50 (A549 NSCLC) of 604 µM and a TGI (A549 NSCLC) greater than 1000 µM. For the same compound, the GI50 (ACHN renal) was 481 µM, the TGI (ACHN renal) was greater than 1000 µM and the GI50 (BT-549 breast) was 69.3 µM and 459 µM. The TGI (BT-549 breast) was greater than 1000 µM, the TGI (CCRF-CEM leukemia) was 57.2 µM and 448 µM and the GI50 (COLO 205 colon) was 274 µM. For the same compound, the TGI (COLO 205 colon) was greater than 1000 µM, the GI50 (DU-145 prostate) was 391 µM and the TGI (DU-145 prostate) was greater than 1000 µM. The GI50 (EKVX NSCLC) was greater than 1000 µM, the TGI (EKVX NSCLC) was greater than 1000 µM and the GI50 (HCC-2998 colon) was greater than 1000 µM. For the same compound, the TGI (HCC-2998 colon) was greater than 1000 µM, the GI50 (HCT-116 colon) was 325 µM and the TGI (HCT-116 colon) was greater than 1000 µM. The GI50 (HCT-15 colon) was 758 µM, the TGI (HCT-15 colon) was greater than 1000 µM and the GI50 (HL-60(TB) leukemia) was 133 µM. The TGI (HL-60(TB) leukemia) was 489 µM, the GI50 (HOP-62 NSCLC) was greater than 1000 µM and the TGI (HOP-62 NSCLC) was greater than 1000 µM. It also gave a GI50 (HOP-92 NSCLC) greater than 1000 µM, a TGI (HOP-92 NSCLC) greater than 1000 µM and a GI50 (HS 578T breast) of 246 µM. The TGI (HS 578T breast) was 808 µM, the GI50 (HT29 colon) was 305 µM and the TGI (HT29 colon) was greater than 1000 µM. For the same compound, the GI50 (IGROV1 ovarian) was 445 µM, the TGI (IGROV1 ovarian) was greater than 1000 µM and the GI50 (K-562 leukemia) was 81.7 µM. For the same compound, the TGI (K-562 leukemia) was 501 µM, the GI50 (KM12 colon) was 143 µM and the TGI (KM12 colon) was 463 µM. It also gave a GI50 (LOX IMVI melanoma) of 217 µM, a TGI (LOX IMVI melanoma) greater than 1000 µM and a GI50 (M14 melanoma) of 517 µM. For the same compound, the TGI (M14 melanoma) was greater than 1000 µM, the GI50 (MALME-3M melanoma) was 258 µM and the TGI (MALME-3M melanoma) was greater than 1000 µM. The GI50 (MCF7 breast) was 26.6 µM and 135 µM, the TGI (MCF7 breast) was 815 µM and the GI50 (MDA-MB-231 breast) was 960 µM. For the same compound, the TGI (MDA-MB-231 breast) was greater than 1000 µM, the GI50 (MDA-MB-435) was 34.6 µM and 50.1 µM and the TGI (MDA-MB-435) was 200 µM. For the same compound, the GI50 (NCI-H226 lung) was greater than 1000 µM, the TGI (NCI-H226 lung) was greater than 1000 µM and the GI50 (NCI-H23 lung) was 491 µM. For the same compound, the TGI (NCI-H23 lung) was greater than 1000 µM, the GI50 (NCI-H460 lung) was 433 µM and the TGI (NCI-H460 lung) was greater than 1000 µM. The GI50 (NCI-H522 lung) was 61.9 µM, the TGI (NCI-H522 lung) was greater than 1000 µM and the GI50 (NCI/ADR-RES ovarian) was greater than 1000 µM. It also gave a TGI (NCI/ADR-RES ovarian) greater than 1000 µM, a GI50 (OVCAR-3 ovarian) of 186 µM and a TGI (OVCAR-3 ovarian) of 726 µM. The GI50 (OVCAR-4 ovarian) was greater than 1000 µM, the TGI (OVCAR-4 ovarian) was greater than 1000 µM and the GI50 (OVCAR-5 ovarian) was greater than 1000 µM. The TGI (OVCAR-5 ovarian) was greater than 1000 µM, the GI50 (OVCAR-8 ovarian) was 697 µM and the TGI (OVCAR-8 ovarian) was greater than 1000 µM. The GI50 (PC-3 prostate) was 94.9 µM and 160 µM, the TGI (PC-3 prostate) was greater than 1000 µM and the GI50 (RPMI-8226 leukemia) was 65.3 µM. It also gave a GI50 (RXF 393 renal) of 128 µM, a TGI (RXF 393 renal) of 719 µM and a GI50 (SF-268 CNS) of 619 µM. It also gave a TGI (SF-268 CNS) greater than 1000 µM, a GI50 (SF-295 CNS) greater than 1000 µM and a TGI (SF-295 CNS) greater than 1000 µM. For the same compound, the GI50 (SF-539 CNS) was 42.9 µM and 286 µM, the TGI (SF-539 CNS) was 770 µM and the GI50 (SK-MEL-28 melanoma) was 636 µM. For the same compound, the TGI (SK-MEL-28 melanoma) was greater than 1000 µM, the TGI (SK-MEL-5 melanoma) was greater than 1000 µM and the GI50 (SK-OV-3 ovarian) was 480 µM. The TGI (SK-OV-3 ovarian) was greater than 1000 µM, the GI50 (SN12C renal) was 379 µM and the TGI (SN12C renal) was greater than 1000 µM. The GI50 (SNB-19 CNS) was greater than 1000 µM, the TGI (SNB-19 CNS) was greater than 1000 µM and the TGI (SNB-75 CNS) was greater than 1000 µM. For the same compound, the GI50 (SR leukemia) was 16.8 µM and 34.6 µM, the GI50 (SW-620 colon) was 398 µM and the TGI (SW-620 colon) was greater than 1000 µM. The GI50 (T-47D breast) was 472 µM, the TGI (T-47D breast) was greater than 1000 µM and the GI50 (TK-10 renal) was greater than 1000 µM. The TGI (TK-10 renal) was greater than 1000 µM, the GI50 (U251 CNS) was 309 µM and the TGI (U251 CNS) was greater than 1000 µM. The GI50 (UACC-257 melanoma) was greater than 1000 µM, the TGI (UACC-257 melanoma) was greater than 1000 µM and the GI50 (UACC-62 melanoma) was 66.8 µM. For the same compound, the TGI (UACC-62 melanoma) was greater than 1000 µM, the GI50 (UO-31 renal) was 673 µM and the TGI (UO-31 renal) was greater than 1000 µM.
